The results in this text go back to US7718618B2, “Human cathelicidin antimicrobial peptides” (priority 2003, dated 2010).

Ends that are not written are not given here.

One data set deals with S. aureus mprF. As to the kind of experiment: LL-37 incubated in sweat, radial diffusion assay against S. aureus mprF. The format is cell-based, Staphylococcus aureus. Particulars: protease inhibitor added during incubation, 37° C., 6 hr. As for the experimental part: Antibacterial activity evaluated by radial diffusion assay against S. aureus mprF after incubation of LL-37 (32 uM) in sweat. a) Increase in the inhibition zone is seen when incubated in sweat but not 10 mM PBS or distilled water (DW). b) Diameters of inhibition zone after 6 hr incubation at 37° C. in (SWT buffer; sweat buffer salts alone), (PBS), (D.W.; distilled water), (SWT; sterile filtered human sweat at 37° C.), (SWT at 4° C.), (SWT with PI, with protease inhibitor cocktail). c) Action of specific protease inhibitors on gain of antimicrobial activity. […] N.E.I.=neutrophil elastase inhibitor, L.E.I.=leukocyte elastase inhibitor. Data are triplicate determinations±SEM from single experiment representative of 3.
Sweat collection and processing. Sweat was collected on paper tissues (Kimwipes, Kimberly-Clark, GA) from healthy volunteers after exercise. After collection, 20 ml of sweat was centrifuged at 2000 g for 15 min. at 4° C., filtered through a […] (Acrodisc syringe filter, […], low protein binding, Fisher scientific, Tustin, Calif.), and frozen at −80° C. […] Protein concentrations were evaluated by BCA assay (protein assay reagent, Pierce, Rockford, Ill.) or Bradford protein assay (Bio-Rad, Hercules, Calif.) according to manufacture's instructions. […]

Data set [1] concerns Staphylococcus aureus mprF. Kind of data set: Radial diffusion assay against S. aureus mprF. The data set is classed as cell-based. On the procedure: Antimicrobial assays. For screening of antimicrobial activity of HPLC fractions, radial diffusion assay was used. Lyophilized HPLC fractions were dissolved in DW (GibcoBRL, Grand Island, N.Y.), and tested against Staphylococcus aureus mprF. Thin plates (1 mm) of 1% agarose in 0.5% tryptone containing approximately 1×10^6 cells/ml of S. aureus mprF were used. 1 mm wells were punched in the plates and […] of samples dissolved in tissue culture grade sterile water were loaded in each well.
(§1) As a positive control, synthetic LL-37 was applied to separate wells. After incubation at 37° C. overnight, the inhibition zones were recorded by CCD camera and diameters measured. To evaluate antimicrobial activity against wild-type S. aureus (clinical isolate), and enteroinvasive E. coli 029, both radial diffusion and solution killing assays were done. Radial diffusion assays were done as described for S. aureus mprF. Solution killing was done in 10% TSB in 10 mM PB (TSB=30 gm/L Tryptic Soy Broth, Sigma, St Louis Mo.; 20×PB=27.6 g/L NaH2PO4-H2O, 53.65 g/L Na2HPO4-7H2O, pH 7.4). Bacteria in log-phase growth were suspended to 1×10^6 cells/ml, peptide added and incubated at 37° C. for 2 hr. Bacteria were then plated on TSB agar (TSB, Bactoagar 13 g/L, Becton Dickinson, Sparks Md.) for direct colony count and determination of CFU.

The test system of data set [2] is wild-type S. aureus (clinical isolate). Kind of data set: Radial diffusion assay against wild-type S. aureus. The format is cell-based, Staphylococcus aureus. As for the experimental part: as §1
Data set [3] deals with enteroinvasive E. coli 029. Kind of data set: Radial diffusion assay against E. coli O29. The data set is classed as cell-based. As for the experimental part:
as §1

The test system of data set [4] is Group A Streptococcus (NZ131). The format is cell-based. As for the experimental part: as §1
(§2) Activity against Group A Streptococcus (NZ131) was done only in solution assay as described. To evaluate antimicrobial activity in high salt conditions, solution assay was done in 10% TSB/10 mM PBS with several salt concentrations (concentration of NaCl; 10, 50, 100, 150, 300, 500 mM). Action against the C. albicans was determined in Dixon medium (0.6% Peptone, 4% Malt Extract, 1% Glucose, 0.1% Ox Bile, 1% Tween-80) in sterile 96-well microtiter plates (Corning Inc., Corning, N.Y.) at a final volume of […]. The assay mixtures contained 1-2.5×10^4 […] freshly grown Candida, 20% Dixon medium, 0.6 mM phosphate buffer pH 7, and […] chloramphenicol. Microtiter plates were incubated at 37° C. for 24 h with peptides, then plated on Dixon agar to determine the MFC (minimum fungicide concentration).

A further data set deals with C. albicans ATCC 14053. The data set is classed as cell-based, Candida albicans. As for the experimental part: as §2
The subject of the next data set is human erythrocytes. As to the kind of experiment: Hemolysis assay on human whole blood. Particulars: peptide at 100 μM; relative to 0.1% Triton X-100. The format is cell-based. As for the experimental part:
Hemolysis Assay. Hemolytic activity was determined on human whole blood. Freshly obtained whole blood was washed 3× in PBS and resuspended in PBS at its original volume containing peptides at indicated concentrations. Samples were incubated at 37° C. for 1.5 to 3 h, and hemolysis determined by centrifuging at 300 g and measurement of the absorbance of the supernatant at 578 nm. Hemolytic activity of each peptide was expressed as the percentage of total hemoglobin released compared to that released by incubating with 0.1% Triton X-100.

For the next data set, the system named is S. aureus. As to the kind of experiment: Release of cytoplasmic beta-galactosidase from S. aureus (membrane disruption). The format is cell-based. Particulars: with versus without NaHCO3. The text has this:
Release of cytoplasmic expressed beta-galactosidase was measure from bacteria with and without the addition of NaHCO3.

The subject of another data set is Staphylococcus aureus. Kind of data set: S. aureus growth inhibition (turbidity OD600) with or without carbonate. The data set is classed as cell-based. On the procedure: Carbonate was identified as the antimicrobial enhancing factor in mammalian tissue culture media via serial deletion of Minimal Essential Media (MEM) components. Staphylococcus aureus was cultured in 20% Tryptic Soy Broth (TSB), 10% Fetal Bovine Serum (FBS) and 70% of various media or media components with, or without, 32 μM LL-37 to assess which components could increase antimicrobial activity. MEM buffers are 2200 mg/L NaHCO3, 140 mg/L NaH2PO4 and 6800 mg/L NaCl. MEM salts are 200 mg/L CaCl2, 400 mg/L KCl, 98 mg/L MgSO4. All solutions were adjusted to pH 7.4. Bacterial growth was measured as the change in turbidity at OD600 and percent inhibition was determined by comparing bacterial growth in the presence of peptide to that in the absence of peptide.
Inhibition of S. aureus was measured in 20% TSB, 10% FBS 1 mM NaH2PO4, 150 mM NaCl, with either 50 mM NaHCO3 or […] Glycine buffer at various pH.
Inhibition of Staph aureus growth in the presence of various concentrations of human (LL-37), murine (CRAMP) and porcine (PR-39). Cathelicidin antimicrobial peptides was measured in 20% TSB, 1 mM NaH2PO4, with, or without, […] NaHCO3 at pH 7.4.
The growth of S. aureus in the presence, or absence, of 32 μM LL-37 was measured in 20% TSB, 10% FBS, 1 mM NaH2PO4, 150 mM NaCl, and various concentrations of NaHCO3, all at pH 7.4. […] High concentrations of NaHCO3 retarded the growth of S. aureus. […]

For a further data set, the system named is E. coli. As to the kind of experiment: E. coli susceptibility to CRAMP with or without NaHCO3. The format is cell-based.
Another data set deals with Group B Strep (GBS). As to the kind of experiment: Group B Strep susceptibility to CRAMP. Particulars: 16 μM peptide, without NaHCO3. The format is cell-based.
The subject of another data set is Salmonella. As to the kind of experiment: Salmonella susceptibility to CRAMP. The data set is classed as cell-based. Particulars: 16 μM peptide, without NaHCO3.
The subject of another data set is antigen presentation. As to the kind of experiment: Antigen presentation in vitro. The data set is classed as cell-based.
[5] abbreviates: 16 μM peptide in presence of NaHCO3.
Setting [6] is: 16 μM peptide without SOM NaHCO3.

As to `NCCc1ccc(S(=O)(=O)F)cc1` [AEBSF], in the data set on S. aureus mprF, the “blocking of the increase in antimicrobial activity of LL-37 in sweat” value was “most effective in blocking the increase in antimicrobial activity”.

With “H-KSKEKIGKEFKRIVQRIKDFLRNLVPRTES-OH [KS-30]”, in data set [1], the “Radial Diffusion Assay S. aureus MprF, minimal inhibitory concentration (MIC)” value was 8 μm. Moreover, in [2], the “action against wild-type S. aureus compared to LL-37” value is recorded as “greatly increased action” and the “Radial Diffusion Assay S. aureus (wt), minimal inhibitory concentration (MIC)” value is 16 μm. Also, in [3], the “action against E. coli compared to LL-37” value was “greatly increased action” and the “Radial Diffusion Assay E. coli (O29), minimal inhibitory concentration (MIC)” value is recorded as 8 μm. Also, the “Liquid Assay GAS (NZ131), minimal concentration required to kill” value (“Liquid Assay GAS (NZ131)” below) in [4] amounted to 4 μm. Besides, in the data set with C. albicans ATCC 14053, the “Liquid Assay C. albicans ATCC 14053, minimal concentration required to kill” value was determined as 2 μm.

In the case of KRIVQRIKDFLRNLVPRTES [KR-20], the “Radial Diffusion Assay S. aureus MprF, minimal inhibitory concentration (MIC)” value in data set [1] was 16 μm. For the same molecule, in data set [2], the “Radial Diffusion Assay S. aureus (wt), minimal inhibitory concentration (MIC)” value was above 64 μm. The “Radial Diffusion Assay E. coli (O29), minimal inhibitory concentration (MIC)” value in data set [3] was above 64 μm. The “Liquid Assay GAS (NZ131)” value in data set [4] is on record as 4 μm. Besides, in the data set with C. albicans ATCC 14053, the “Liquid Assay C. albicans ATCC 14053, minimal concentration required to kill” value is given as 10 μm.

For the molecule `CC[C@H](C)[C@H](NC(=O)[C@H](CCCCN)NC(=O)[C@H](CCC(=O)O)NC(=O)[C@H](CCCCN)NC(=O)[C@H](CO)NC(=O)[C@H](CCCCN)NC(=O)[C@H](CCCNC(=N)N)NC(=O)[C@H](Cc1ccccc1)NC(=O)[C@H](Cc1ccccc1)NC(=O)[C@H](CC(=O)O)NC(=O)CNC(=O)[C@H](CC(C)C)NC(=O)[C@@H](N)CC(C)C)C(=O)NCC(=O)N[C@@H](CCCCN)C(=O)N[C@@H](CCC(=O)O)C(=O)N[C@@H](Cc1ccccc1)C(=O)N[C@@H](CCCCN)C(=O)N[C@@H](CCCNC(=N)N)C(=O)N[C@H](C(=O)N[C@H](C(=O)N[C@@H](CCC(N)=O)C(=O)N[C@@H](CCCNC(=N)N)C(=O)N[C@H](C(=O)N[C@@H](CCCCN)C(=O)N[C@@H](CC(=O)O)C(=O)N[C@@H](Cc1ccccc1)C(=O)N[C@@H](CC(C)C)C(=O)N[C@@H](CCCNC(=N)N)C(=O)N[C@@H](CC(N)=O)C(=O)N[C@@H](CC(C)C)C(=O)N[C@H](C(=O)N1CCC[C@H]1C(=O)N[C@@H](CCCNC(=N)N)C(=O)N[C@H](C(=O)N[C@@H](CCC(=O)O)C(=O)N[C@@H](CO)C(=O)O)[C@@H](C)O)C(C)C)[C@@H](C)CC)C(C)C)[C@@H](C)CC` [LL-37], the “% hemolysis” value with human erythrocytes is on record as 9%.

With Polymyxin B, the “leakage of cytoplasmic protein (beta-galactosidase)” value in the data set with S. aureus was “induces greater leakage of cytoplasmic protein with carbonate”.

As for “SSLLEKGLDGAKKAVGGLGKLGKDAVEDLESVGKGAVHDVKDVLDSV (listed as Homo sapiens) [DCD, dermcidin antimicrobial peptide of human sweat, reference compound]”, in data set [1], the “Radial Diffusion Assay S. aureus MprF, minimal inhibitory concentration (MIC)” value is above 64 μm. Besides, the “Radial Diffusion Assay S. aureus (wt), minimal inhibitory concentration (MIC)” value in data set [2] was above 64 μm. For the same molecule, the “Radial Diffusion Assay E. coli (O29), minimal inhibitory concentration (MIC)” value in data set [3] is above 64 μm. For the same molecule, the “Liquid Assay GAS (NZ131)” value in [4] is recorded as above 64 μm. Further, the “Liquid Assay C. albicans ATCC 14053, minimal concentration required to kill” value in the data set on C. albicans ATCC 14053 is above 32 μm.

For “H-RKSKEKIGKEFKRIVQRIKDFLRNLVPRTES-OH [RK-31]”, the “Radial Diffusion Assay S. aureus MprF, minimal inhibitory concentration (MIC)” value in data set [1] is on record as 8 μm. In data set [2], the “action against wild-type S. aureus compared to LL-37” value was “greatly increased action” and the “Radial Diffusion Assay S. aureus (wt), minimal inhibitory concentration (MIC)” value turned out to be 16 μm. Also, in data set [3], the “action against E. coli compared to LL-37” value is “greatly increased action” and the “Radial Diffusion Assay E. coli (O29), minimal inhibitory concentration (MIC)” value came out at 8 μm. Moreover, in data set [4], the “Liquid Assay GAS (NZ131)” value is recorded as 8 μm. Further, the “Liquid Assay C. albicans ATCC 14053, minimal concentration required to kill” value with C. albicans ATCC 14053 is on record as 4 μm.

For the molecule Aprotinin, the “blocking of the increase in antimicrobial activity of LL-37 in sweat” value with S. aureus mprF is listed as “most effective in blocking the increase in antimicrobial activity”.

On to CRAMP, for which the entries for the “susceptibility of S. aureus” value with Staphylococcus aureus (setting [5]) and in the data set with Staphylococcus aureus (setting [6]) were “became susceptible” and “resistant”, respectively. Further, the “susceptibility of E. coli” value with E. coli (setting [5]) is given as “became susceptible”; in the data set on E. coli (setting [6]), “resistant”. In the data set with Group B Strep (GBS), the “susceptibility of Group B Strep (GBS)” value is “susceptible even without NaHCO3”. Also, in the data set with Salmonella, the “susceptibility of Salmonella” value is recorded as “susceptible even without NaHCO3”. The “antigen presentation in vitro” value in the data set on antigen presentation is recorded as “inhibits antigen presentation in vitro”.
